Data from the supplement of paper PMC10307832.

Columns and labels:
Assay in all cases: relative viability (nuclei count vs DMSO), 5 days (fraction); higher = more cells survive
AZ505 + Foretinib = compound: C1CCC(CC1)N(CCNCCC2=C3C(=C(C=C2)O)NC(=O)CO3)C(=O)CCNCCC4=CC(=C(C=C4)Cl)Cl [AZ505] + COc1cc2c(Oc3ccc(NC(=O)C4(C(=O)Nc5ccc(F)cc5)CC4)cc3F)ccnc2cc1OCCCN1CCOCC1 [Foretinib] (partner 0.25 µM)
Procedure, shortened: (§1)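 Relative viability divides the nuclei count in treated wells by that in vehicle wells. Lung cancer cell lines were seeded in 1536-well plates, dosed by pin tool the next day, and fixed and stained after 5 days in one step with final 0.05% Triton X-100, 1% formaldehyde and 1 ug/ml Hoechst. Dosing was a single drug or a fixed anchor-drug dose plus five library-drug doses (not always all listed) in √10 steps, and values are medians of duplicate plates imaged at 4×.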

Dactolisib + OSI-027 = compound: Cn1c(=O)n(-c2ccc(C(C)(C)C#N)cc2)c2c3cc(-c4cnc5ccccc5c4)ccc3ncc21 [Dactolisib] + COc1cccc2cc(-c3nc([C@H]4CC[C@H](C(=O)O)CC4)n4ncnc(N)c34)[nH]c12 [OSI-027] (partner 0.5 µM)
Procedure, shortened: as §1

Dactolisib + AZD7762 = compound: Cn1c(=O)n(-c2ccc(C(C)(C)C#N)cc2)c2c3cc(-c4cnc5ccccc5c4)ccc3ncc21 [Dactolisib] + NC(=O)Nc1cc(-c2cccc(F)c2)sc1C(=O)N[C@H]1CCCNC1 [AZD7762] (partner 0.2 µM)
Procedure, shortened: as §1

AZ505 + Lapatinib = compound: C1CCC(CC1)N(CCNCCC2=C3C(=C(C=C2)O)NC(=O)CO3)C(=O)CCNCCC4=CC(=C(C=C4)Cl)Cl [AZ505] + CS(=O)(=O)CCNCc1ccc(-c2ccc3ncnc(Nc4ccc(OCc5cccc(F)c5)c(Cl)c4)c3c2)o1 [Lapatinib] (partner 2 µM)
Procedure, shortened: as §1

Row | Cell Line | relative viability (AZ505 + Foretinib; first compound 0.08 µM) | relative viability (AZ505 + Foretinib; first compound 0.253 µM) | relative viability (AZ505 + Foretinib; first compound 0.8 µM) | relative viability (AZ505 + Foretinib; first compound 2.53 µM) | relative viability (AZ505 + Foretinib; first compound 8 µM) | relative viability (Dactolisib + OSI-027; first compound 0.002 µM) | relative viability (Dactolisib + OSI-027; first compound 0.006325 µM) | relative viability (Dactolisib + OSI-027; first compound 0.02 µM) | relative viability (Dactolisib + OSI-027; first compound 0.06325 µM) | relative viability (Dactolisib + OSI-027; first compound 0.2 µM) | relative viability (Dactolisib + AZD7762; first compound 0.002 µM) | relative viability (Dactolisib + AZD7762; first compound 0.006325 µM) | relative viability (Dactolisib + AZD7762; first compound 0.02 µM) | relative viability (Dactolisib + AZD7762; first compound 0.06325 µM) | relative viability (Dactolisib + AZD7762; first compound 0.2 µM) | relative viability (AZ505 + Lapatinib; first compound 0.08 µM) | relative viability (AZ505 + Lapatinib; first compound 0.253 µM) | relative viability (AZ505 + Lapatinib; first compound 0.8 µM) | relative viability (AZ505 + Lapatinib; first compound 2.53 µM) | relative viability (AZ505 + Lapatinib; first compound 8 µM)
1 | NCI-H441 | 0.909 | 0.97 | 1.09 | 0.876 | 1.06 | 0.915 | 0.725 | 0.716 | 0.44 | 0.344 | 1.04 | 1.28 | 1.18 | 0.764 | 0.449 |  |  |  |  | 
2 | NCI-H520 | 0.625 | 0.756 | 0.76 | 0.772 | 0.745 | 0.285 | 0.303 | 0.308 | 0.204 | 0.189 |  |  |  |  |  | 0.799 | 0.828 | 0.761 | 0.895 | 0.983
3 | NCI-H522 |  |  |  |  |  | 0.719 | 0.728 | 0.881 | 0.671 | 0.539 | 0.83 | 0.858 | 0.979 | 0.695 | 0.626 |  |  |  |  | 
4 | NCI-H661 | 1 | 1.02 | 0.981 | 0.984 | 0.999 | 0.701 | 0.759 | 0.652 | 0.366 | 0.339 |  |  |  |  |  | 0.468 | 0.502 | 0.447 | 0.477 | 0.499
5 | NCI-H1299 | 1.01 | 1.03 | 0.987 | 1.1 | 1.1 |  |  |  |  |  |  |  |  |  |  | 0.918 | 1.05 | 0.923 | 0.897 | 0.978
6 | NCI-H1563 | 0.928 | 0.965 | 0.902 | 0.866 | 0.93 | 0.746 | 0.772 | 0.685 | 0.648 | 0.598 |  |  |  |  |  | 0.836 | 0.882 | 0.998 | 0.865 | 0.905
7 | NCI-H1623 | 0.76 | 0.781 | 0.834 | 0.79 | 0.99 | 0.49 | 0.431 | 0.46 | 0.38 | 0.396 |  |  |  |  |  |  |  |  |  | 
8 | NCI-H1648 |  |  |  |  |  | 0.246 | 0.286 | 0.279 | 0.235 | 0.263 | 0.934 | 0.762 | 0.629 | 0.603 | 0.555 |  |  |  |  | 
9 | NCI-H1650 | 0.965 | 1.05 | 1.34 | 0.865 | 1.24 | 0.775 | 0.598 | 0.593 | 0.455 | 0.282 |  |  |  |  |  | 0.699 | 0.707 | 0.794 | 0.742 | 0.909
10 | NCI-H1703 |  | 0.411 | 0.335 | 0.366 | 0.365 |  |  |  |  |  |  | 0.139 | 0.127 | 0.124 | 0.115 | 1 | 1.26 | 1.03 | 1.2 | 1.28
11 | NCI-H1792 |  |  |  |  |  | 0.742 | 0.72 | 0.654 | 0.391 | 0.266 | 0.748 | 0.448 | 0.569 | 0.0821 | 0.0508 | 0.822 | 0.846 | 0.861 | 0.852 | 0.99
12 | NCI-H2009 | 1.18 | 1.21 | 1.19 | 1.17 | 1.17 | 0.74 | 0.659 | 0.754 | 0.404 | 0.266 |  |  |  |  |  | 0.864 | 0.928 | 1.07 | 0.665 | 0.86
13 | NCI-H2023 | 0.743 | 0.916 | 0.869 | 0.854 | 0.776 | 0.412 | 0.357 | 0.344 | 0.15 | 0.108 |  |  |  |  |  | 0.674 | 0.822 | 0.845 | 0.917 | 0.815
14 | NCI-H2228 | 0.644 | 0.799 | 0.809 | 0.823 | 0.665 | 0.497 | 0.426 | 0.417 | 0.186 | 0.176 |  |  |  |  |  | 1.09 | 0.957 | 0.939 | 0.885 | 1.11
15 | NCI-H2342 | 1.07 | 1.02 | 1.02 | 1.14 | 1.14 | 0.684 | 0.67 | 0.572 | 0.695 | 0.518 | 0.511 | 0.49 | 0.444 | 0.471 | 0.413 |  |  |  |  | 
16 | SK-LU-1 | 0.542 | 0.58 | 0.612 | 0.515 | 0.51 | 0.277 | 0.42 | 0.362 | 0.283 | 0.226 |  |  |  |  |  | 0.477 | 0.651 | 0.578 | 0.537 | 0.712
17 | SK-MES-1 | 0.765 | 0.774 | 0.824 | 0.782 | 0.738 | 0.612 | 0.601 | 0.603 | 0.324 | 0.242 |  |  |  |  |  | 0.406 | 0.434 | 0.499 | 0.473 | 0.445
18 | SW 900 | 0.85 | 0.972 | 0.968 | 0.927 | 0.616 | 0.495 | 0.419 | 0.474 | 0.244 | 0.213 | 0.607 | 0.526 | 0.596 | 0.435 | 0.224 |  |  |  |  | 
19 | SW 1573 | 0.873 | 0.993 | 0.918 | 0.817 | 0.959 | 0.702 | 0.579 | 0.5 | 0.199 | 0.167 |  |  |  |  |  | 1.03 | 1.04 | 1.15 | 1.17 | 1.09
